System: HEK293 cells
Test: HEK293 VLCFA-LPC IC50 determination (13C-labeled C26:0 LPC by UHPLC/MS)
Type: cell-based, human
Settings: Homo sapiens, HEK293, HEK293 cells; average of one or more replicates; read-out: Average HEK293 IC50
Outline: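 Suspension HEK293 cells (final 0.5 million/mL after mixing with equal volume) incubated 48 hours with compound plus 13C-acetate (1.0 mg/mL in added media), shaking at 37° C. Lipids extracted with hexane/isopropanol or methanol, C13:0 LPC standard. UHPLC/MS of 13C-labeled C26:0 LPC (638.500/104.100 m/z); IC50 by four-parameter fit.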

SMILES: O=C(Cc1ccccc1)Nc1ccn(-c2ccc(Cl)nc2)n1 [Compound 103, N-[1-(6-chloro-3-pyridyl)pyrazol-3-yl]-2-phenyl-acetamide]
- IC50: 580 nM

SMILES: O=C(Cc1ccccc1F)Nc1ccn(-c2ccc(Cl)nc2)n1 [Compound 104, N-[1-(6-chloro-3-pyridyl)pyrazol-3-yl]-2-(2-fluorophenyl)acetamide]
- IC50: 320 nM

SMILES: O=C(Cc1ccc(F)cc1)Nc1ccn(-c2ccc(Cl)nc2)n1 [Compound 105, N-[1-(6-chloro-3-pyridyl)pyrazol-3-yl]-2-(4-fluorophenyl)acetamide]
- IC50: > 5000 nM

SMILES: O=C(Nc1ccn(-c2ccc(Cl)nc2)n1)C1(c2ccccc2)CC1 [Compound 106, N-[1-(6-chloro-3-pyridyl)pyrazol-3-yl]-1-phenyl-cyclopropanecarboxamide]
- IC50: 250 nM

SMILES: O=C(Nc1ccn(-c2ccc(Cl)nc2)n1)C1(c2ccccc2F)CC1 [Compound 107, N-[1-(6-chloro-3-pyridyl)pyrazol-3-yl]-1-(2-fluorophenyl)cyclopropanecarboxamide]
- IC50: 84 nM

SMILES: Cc1cc(-n2ccc(NC(=O)C3(c4ccc(F)cc4)CC3)n2)ccn1 [Compound 108, 1-(4-fluorophenyl)-N-[1-(2-methyl-4-pyridyl)pyrazol-3-yl]cyclopropanecarboxamide]
- IC50: 770 nM

SMILES: Cc1cc(-n2ccc(NC(=O)Cc3ccccc3)n2)ccn1 [Compound 109, N-[1-(2-methyl-4-pyridyl)pyrazol-3-yl]-2-phenyl-acetamide]
- IC50: > 10000 nM

SMILES: Cc1cc(-n2ccc(NC(=O)Cc3ccccc3F)n2)ccn1 [Compound 110, 2-(2-fluorophenyl)-N-[1-(2-methyl-4-pyridyl)pyrazol-3-yl]acetamide]
- IC50: > 10000 nM

SMILES: Cc1cc(-n2ccc(NC(=O)Cc3ccc(F)cc3)n2)ccn1 [Compound 111, 2-(4-fluorophenyl)-N-[1-(2-methyl-4-pyridyl)pyrazol-3-yl]acetamide]
- IC50: > 10000 nM

SMILES: Cc1cc(-n2ccc(NC(=O)C3(c4ccccc4)CC3)n2)ccn1 [Compound 112, N-[1-(2-methyl-4-pyridyl)pyrazol-3-yl]-1-phenyl-cyclopropanecarboxamide]
- IC50: 910 nM

SMILES: Cc1cc(-n2ccc(NC(=O)C3(c4ccccc4F)CC3)n2)ccn1 [Compound 113, 1-(2-fluorophenyl)-N-[1-(2-methyl-4-pyridyl)pyrazol-3-yl]cyclopropanecarboxamide]
- IC50: 1600 nM

SMILES: O=C(Cc1ccccc1)Nc1ccn(-c2cc(F)ncc2F)n1 [Compound 114, N-[1-(2,5-difluoro-4-pyridyl)pyrazol-3-yl]-2-phenyl-acetamide]
- IC50: 1200 nM

SMILES: O=C(Nc1ccn(-c2cc(F)ncc2F)n1)C1(c2ccccc2)CC1 [Compound 115, N-[1-(2,5-difluoro-4-pyridyl)pyrazol-3-yl]-1-phenyl-cyclopropanecarboxamide]
- IC50: 120 nM

SMILES: O=C(Nc1ccn(-c2cc(F)ncc2F)n1)C1(c2ccccc2F)CC1 [Compound 116, N-[1-(2,5-difluoro-4-pyridyl)pyrazol-3-yl]-1-(2-fluorophenyl)cyclopropanecarboxamide]
- IC50: 76 nM

SMILES: Cc1ccc(-n2ccc(NC(=O)Cc3ccccc3)n2)cn1 [Compound 117, N-[1-(6-methyl-3-pyridyl)pyrazol-3-yl]-2-phenyl-acetamide]
- IC50: > 5000 nM

SMILES: Cc1ccc(-n2ccc(NC(=O)C3(c4ccccc4)CC3)n2)cn1 [Compound 118, N-(1-(6-methylpyridin-3-yl)-1H-pyrazol-3-yl)-1-phenylcyclopropane-1-carboxamide]
- IC50: 1300 nM

SMILES: Cc1ccc(-n2ccc(NC(=O)Cc3ccccc3F)n2)cn1 [Compound 119, 2-(2-fluorophenyl)-N-[1-(6-methyl-3-pyridyl)pyrazol-3-yl]acetamide]
- IC50: 3500 nM

SMILES: Cc1ccc(-n2ccc(NC(=O)C3(c4ccccc4F)CC3)n2)cn1 [Compound 120, 1-(2-fluorophenyl)-N-[1-(6-methyl-3-pyridyl)pyrazol-3-yl]cyclopropanecarboxamide]
- IC50: 620 nM

SMILES: O=C(Cc1ccccc1)Nc1ccn(-c2cccc(Cl)c2)n1 [Compound 121, N-[1-(3-chlorophenyl)pyrazol-3-yl]-2-phenyl-acetamide]
- IC50: 650 nM

SMILES: O=C(Cc1ccccc1F)Nc1ccn(-c2ccnc(C(F)(F)F)c2)n1 [Compound 122, 2-(2-fluorophenyl)-N-[1-[2-(trifluoromethyl)-4-pyridyl]pyrazol-3-yl]acetamide]
- IC50: 1600 nM

SMILES: O=C(Cc1ccccc1)Nc1ccn(-c2ccnc(C(F)(F)F)c2)n1 [Compound 123, 2-phenyl-N-[1-[2-(trifluoromethyl)-4-pyridyl]pyrazol-3-yl]acetamide]
- IC50: 1500 nM

SMILES: O=C(Nc1ccn(-c2cccc(F)c2)n1)C1(c2ccccc2F)CC1 [Compound 124, 1-(2-fluorophenyl)-N-[1-(3-fluorophenyl)pyrazol-3-yl]cyclopropanecarboxamide]
- IC50: 41 nM

SMILES: O=C(Nc1ccn(-c2cccc(F)c2)n1)C1(c2ccccc2)CC1 [Compound 125, N-[1-(3-fluorophenyl)pyrazol-3-yl]-1-phenyl-cyclopropanecarboxamide]
- IC50: 71 nM

SMILES: O=C(Cc1ccccc1F)Nc1ccn(-c2cccc(F)c2)n1 [Compound 126, 2-(2-fluorophenyl)-N-[1-(3-fluorophenyl)pyrazol-3-yl]acetamide]
- IC50: 500 nM

SMILES: O=C(Cc1ccccc1)Nc1ccn(-c2cccc(F)c2)n1 [Compound 127, N-[1-(3-fluorophenyl)pyrazol-3-yl]-2-phenyl-acetamide]
- IC50: 810 nM

SMILES: O=C(Nc1ccn(-c2cccc(Cl)c2)n1)C1(c2ccccc2F)CC1 [Compound 128, N-[1-(3-chlorophenyl)pyrazol-3-yl]-1-(2-fluorophenyl)cyclopropanecarboxamide]
- IC50: 230 nM

SMILES: O=C(Nc1ccn(-c2cccc(Cl)c2)n1)C1(c2ccccc2)CC1 [Compound 129, N-[1-(3-chlorophenyl)pyrazol-3-yl]-1-phenyl-cyclopropanecarboxamide]
- IC50: 700 nM

SMILES: O=C(Cc1ccccc1F)Nc1ccn(-c2cccc(Cl)c2)n1 [Compound 130, N-[1-(3-chlorophenyl)pyrazol-3-yl]-2-(2-fluorophenyl)acetamide]
- IC50: 1500 nM

SMILES: O=C(Nc1ccn(-c2ccc(Cl)cc2)n1)C1(c2ccccc2F)CC1 [Compound 131, N-[1-(4-chlorophenyl)pyrazol-3-yl]-1-(2-fluorophenyl)cyclopropanecarboxamide]
- IC50: 480 nM

SMILES: O=C(Nc1ccn(-c2ccc(Cl)cc2)n1)C1(c2ccccc2)CC1 [Compound 132, N-[1-(4-chlorophenyl)pyrazol-3-yl]-1-phenyl-cyclopropanecarboxamide]
- IC50: > 5000 nM

SMILES: O=C(Cc1ccccc1F)Nc1ccn(-c2ccc(Cl)cc2)n1 [Compound 133, N-[1-(4-chlorophenyl)pyrazol-3-yl]-2-(2-fluorophenyl)acetamide]
- IC50: > 5000 nM

SMILES: O=C(Cc1ccccc1)Nc1ccn(-c2ccc(Cl)cc2)n1 [Compound 134, N-[1-(4-chlorophenyl)pyrazol-3-yl]-2-phenyl-acetamide]
- IC50: > 5000 nM

SMILES: CC1(C)CC1(C(=O)Nc1ccn(-c2ccccc2)n1)c1ccccc1F (stereo not shown) [Compound 135, 1-(2-fluorophenyl)-2,2-dimethyl-N-(1-phenylpyrazol-3-yl)cyclopropanecarboxamide]
- IC50: 680 nM

SMILES: CC1(C)CC1(C(=O)Nc1ccn(-c2ccccc2)n1)c1ccccc1 (stereo not shown) [Compound 136, 2,2-dimethyl-1-phenyl-N-(1-phenylpyrazol-3-yl)cyclopropanecarboxamide]
- IC50: 940 nM

SMILES: O=C(Nc1ccn(-c2ccncc2F)n1)C1(c2ccccc2F)CC1 [Compound 137, 1-(2-fluorophenyl)-N-[1-(3-fluoro-4-pyridyl)pyrazol-3-yl]cyclopropanecarboxamide]
- IC50: 120 nM

SMILES: O=C(Nc1ccn(-c2ccncc2F)n1)C1(c2ccccc2)CC1 [Compound 138, N-(1-(3-fluoropyridin-4-yl)-1H-pyrazol-3-yl)-1-phenylcyclopropane-1-carboxamide]
- IC50: 55 nM

SMILES: O=C(Cc1ccccc1F)Nc1ccn(-c2ccncc2F)n1 [Compound 139, 2-(2-fluorophenyl)-N-[1-(3-fluoro-4-pyridyl)pyrazol-3-yl]acetamide]
- IC50: 400 nM

SMILES: O=C(Cc1ccccc1)Nc1ccn(-c2ccncc2F)n1 [Compound 140, N-[1-(3-fluoro-4-pyridyl)pyrazol-3-yl]-2-phenyl-acetamide]
- IC50: 1100 nM

SMILES: O=C(Nc1ccn(-c2ccccc2)n1)C1(c2ccccc2)CC1(Cl)Cl (stereo not shown) [Compound 141, 2,2-dichloro-1-phenyl-N-(1-phenylpyrazol-3-yl)cyclopropanecarboxamide]
- IC50: 340 nM

SMILES: O=C(Nc1ccn(-c2ccccc2)n1)C1(c2ccccc2)CCCCC1 [Compound 142, 1-phenyl-N-(1-phenylpyrazol-3-yl)cyclohexanecarboxamide]
- IC50: > 5000 nM

SMILES: O=C(Nc1ccn(-c2ccccc2)n1)C1(c2ccccc2)COC1 [Compound 144, 3-phenyl-N-(1-phenylpyrazol-3-yl)oxetane-3-carboxamide]
- IC50: 260 nM

SMILES: O=C(Nc1ccn(-c2ccccc2)n1)[C@]1(c2ccccc2)CC12CCCC2 [Compound 145, (2R)-2-phenyl-N-(1-phenylpyrazol-3-yl)spiro[2.4]heptane-2-carboxamide]
- IC50: > 5000 nM

SMILES: O=C(Nc1ccn(-c2ccccc2)n1)[C@@]1(c2ccccc2)CC12CCC2 [Compound 146, (2S)-2-phenyl-N-(1-phenylpyrazol-3-yl)spiro[2.3]hexane-2-carboxamide]
- IC50: 87 nM

SMILES: O=C(Nc1ccn(-c2ccnc(F)c2)n1)C1(c2ccccc2)CC1(Cl)Cl (stereo not shown) [Compound 147, 2,2-dichloro-N-[1-(2-fluoro-4-pyridyl)pyrazol-3-yl]-1-phenyl-cyclopropanecarboxamide]
- IC50: 280 nM

SMILES: O=C(Nc1ccn(-c2ccnc(F)c2)n1)C1(c2ccccc2)CCCCC1 [Compound 148, N-[1-(2-fluoro-4-pyridyl)pyrazol-3-yl]-1-phenyl-cyclohexanecarboxamide]
- IC50: > 5000 nM

SMILES: O=C(Nc1ccn(-c2ccnc(F)c2)n1)C1(c2ccccc2)COC1 [Compound 149, N-[1-(2-fluoro-4-pyridyl)pyrazol-3-yl]-3-phenyl-oxetane-3-carboxamide]
- IC50: 660 nM
